Data reported in patent US20120270935A1, “FORMULATIONS” (priority 2009, published 2012).
Converted amounts (≈) assume the structure as drawn. Like-named read-outs stand apart in the source and are kept apart here.

Tests used:
S. mutans ATCC 25175 = assay: MBC assay; type: cell-based, Streptococcus mutans; conditions: Wilkins-Chalgren broth pH 7 (±0.2)
Text: (§1) (a) staphylococci. The Staphylococcus aureus strain used was ATCC 29213. S. aureus and other staphylococci are common causes of a wide range of skin, skin structure and wound infections; S. aureus is also known to exacerbate eczema. The ATCC 29213 strain is known to be susceptible to beta-lactam antibiotics such as methicillin. The Staphylococcus epidermidis strain used was NCTC 11047. Staph. epidermidis forms part of the resident flora of skin and is an opportunistic pathogen which can cause biofilms to grow for instance on plastic surgical implants such as catheters. Unless otherwise stated, the staphylococci were cultured and maintained on Mueller-Hinton Medium (agar and broth) at pH 7.2; cultures were incubated aerobically at 37° C. for 19-20 hours, at pH 7 (±0.2). (b) C. striatum NCTC 764. Corynebacterium striatum is closely related to organisms (aerobic diphtheroids of the genus Corynebacterium) that cause body odour. It was cultured and maintained on Mueller-Hinton medium (agar and broth). All cultures were incubated aerobically at 37° C. for 72 hours, at pH 7 (±0.2). (c) streptococci. The strains tested were S. mutans ATCC 25175 and S. pyogenes ATCC 12344. S. mutans is a Gram-positive, microaerophilic bacterium which plays a significant role in dental caries and in infective endocarditis. Streptococcus pyogenes is associated with skin, soft tissue, burn and wound infections. […]

P. acnes NCTC 737 = assay: Minimum bactericidal concentration (MBC) assay; type: cell-based, Propionibacterium acnes; conditions: compound in DMSO, triplicate
Experimental: The first test micro-organism used was Propionibacterium acnes NCTC 737. This is a propionibacterial strain and is the type strain of the […]; it is fully susceptible to antibiotics.
The propionibacteria were cultured and maintained on Wilkins-Chalgren Anaerobe Medium (agar and broth) at pH 6.0; all cultures were incubated anaerobically at 37° C. for 72 hours.
This assay, normally carried out after an MIC assay, determines the minimum concentration of a compound that is lethal to the micro-organism being tested.
These samples were then individually sub-cultured on antibiotic-free agar medium, under the incubation conditions described above. Following incubation they were examined visually for microbial growth.
DDA assays, as described above, were carried out using as the test formulation the gel prepared in Example 2B above. Also tested was the Example 2B gel minus the Klucel™ thickener, which was also subjected to MIC and MBC assays. For the DDAs, which were performed in triplicate, 100 μl of the relevant formulation was loaded onto each disc, and zones of inhibition were recorded after 3 days' anaerobic incubation at 37° C. The MIC and MBC tests were performed in duplicate and the results recorded after 3 days and 7 days respectively, post-subculture onto drug-free medium.
The compounds copper (II) usnate (Just for Today Ltd), sodium usnate (Yick-Vic Chemicals) and usnic acid (Sigma-Aldrich) were tested against P. acnes NCTC 737, using MIC, MBC and DDA assays as described above. For copper usnate and usnic acid, supplemented DDA assays were also carried out. DMSO was used as the solvent for all three test compounds. For the DDAs, 200 μg of the relevant test compound was loaded onto each disc. The MIC and MBC assays were conducted in triplicate, as were the DDAs for copper usnate.

S. aureus ATCC 29213 = assay: MIC assay; type: cell-based, Staphylococcus aureus; conditions: Mueller-Hinton broth pH 7.0
Text: as §1, with “endocarditis.” for “endocarditis. Streptococcus pyogenes is associated with skin, soft tissue, burn and wound infections.”
This is a standard international method for quantitatively assessing the antimicrobial activity of a compound in a liquid medium. […]
The wells were inoculated with a liquid suspension of freshly grown micro-organism and incubated under the conditions described above. […] The MIC value was recorded as the lowest concentration of test compound required to inhibit microbial growth, ie the lowest concentration for which the liquid in the well remained clear. […]
Example 8 was repeated (except for the supplemented DDA assays), using S. aureus ATCC 29213 as the test organism. […] In the DDA assays, 200 μg is of each compound was loaded onto each disc: the culture medium was Mueller-Hinton agar at pH 7.0, and results were recorded after overnight incubation at 37° C. in air. […]

CC(=O)c1c([O-])c(C)c([O-])c2c1OC1=CC(=O)C(C(C)=O)C(=O)C12C.[Cu+2] (stereo not drawn) [Copper usnate, copper (II) usnate]
MBC (S. mutans ATCC 25175): 31.25 µg/mL
MBC (P. acnes NCTC 737): 1.95 µg/mL
MIC (S. aureus ATCC 29213): 7.8 µg/mL

CC(=O)c1c(O)c(C)c(O)c2c1OC1=CC(=O)C(C(C)=O)C(=O)C12C (stereo not drawn) [Usnic acid, 2,6-diacetyl-7,9-dihydroxy-8,9b-dimethyl-1,3(2H,9bh)-dibenzofurandione]
MBC (S. mutans ATCC 25175; Streptococcus mutans, ATCC25175, read-out: MBC): 125 µg/mL (≈ 363 µM)
MBC (P. acnes NCTC 737; Cutibacterium acnes, NCTC737, read-out: MBC): 31.2 µg/mL (≈ 90.8 µM)
MIC (S. aureus ATCC 29213; Staphylococcus aureus, ATCC29213, read-out: MIC): 31.2 µg/mL (≈ 90.8 µM)
